Consider 3 compounds from patent US9255094B2, “Pyrido[4,3-B]indoles and methods of use” (Medivation Technologies, Inc., priority 2009, dated 2016).

Assay [1] deals with T1, rat adrenergic α1B receptor (Rattus norvegicus, UniProt P15823).
T1 construct: from tissue; host or cells: Wistar Rat liver
T1 sequence (P15823 1-515): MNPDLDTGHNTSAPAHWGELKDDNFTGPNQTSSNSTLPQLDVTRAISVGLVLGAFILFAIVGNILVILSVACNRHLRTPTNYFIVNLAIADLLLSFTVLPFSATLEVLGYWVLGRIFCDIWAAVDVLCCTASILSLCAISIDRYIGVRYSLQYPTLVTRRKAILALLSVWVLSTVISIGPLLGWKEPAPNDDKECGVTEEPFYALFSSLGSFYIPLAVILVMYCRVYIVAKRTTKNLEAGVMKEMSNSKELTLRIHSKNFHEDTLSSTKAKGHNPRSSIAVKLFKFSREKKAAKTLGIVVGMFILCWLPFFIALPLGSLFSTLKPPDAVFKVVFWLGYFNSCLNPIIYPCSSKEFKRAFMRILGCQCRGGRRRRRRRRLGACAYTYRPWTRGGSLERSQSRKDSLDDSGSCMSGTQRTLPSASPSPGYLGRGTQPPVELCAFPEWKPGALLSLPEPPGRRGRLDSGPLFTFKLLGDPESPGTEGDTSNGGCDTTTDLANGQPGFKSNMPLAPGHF
Put plainly: Adrenergic α1B radioligand binding assay ([3H]Prozosin). As to conditions: compound at 0.1 μM; 0.25 nM [3H]Prozosin; Wistar Rat liver; read-out: Percent Inhibition of ligand binding, Adrenergic (0.1 μM) a1B. Here is the method:
To evaluate in radioligand binding assays the activity of compounds of the invention, rat adrenergic α1B receptor obtained from Wistar Rat liver (Garcia-S'ainz, J. A. et al., Biochem. Biophys. Res. Commun. 186:760, 1992; Michel A. D. et al., Br. J. Pharmacol. 98:883, 1989) in a modified Tris-HCl buffer (50 mM Tris-HCl buffer, pH 7.4, 0.5 mM EDTA) is used. Compounds of the invention are incubated with 0.25 nM [^3H]Prozosin for 60 min at 25° C. Non-specific binding is estimated in the presence of 10 μM phentolamine. Receptor proteins are filtered and washed, the filters are then counted to determine [^3H]Prozosin specifically bound. Compounds are screened at 1 μM or lower, using 1% DMSO as vehicle. Compounds of the invention are tested in this biochemical assay and percent inhibition of specific binding is determined.

In assay [2] the target is T2, human recombinant adrenergic α2C receptor (Homo sapiens, UniProt P18825).
T2 construct: expressed in transfected cells; host or cells: insect Sf9 cells
T2 sequence (P18825 1-462): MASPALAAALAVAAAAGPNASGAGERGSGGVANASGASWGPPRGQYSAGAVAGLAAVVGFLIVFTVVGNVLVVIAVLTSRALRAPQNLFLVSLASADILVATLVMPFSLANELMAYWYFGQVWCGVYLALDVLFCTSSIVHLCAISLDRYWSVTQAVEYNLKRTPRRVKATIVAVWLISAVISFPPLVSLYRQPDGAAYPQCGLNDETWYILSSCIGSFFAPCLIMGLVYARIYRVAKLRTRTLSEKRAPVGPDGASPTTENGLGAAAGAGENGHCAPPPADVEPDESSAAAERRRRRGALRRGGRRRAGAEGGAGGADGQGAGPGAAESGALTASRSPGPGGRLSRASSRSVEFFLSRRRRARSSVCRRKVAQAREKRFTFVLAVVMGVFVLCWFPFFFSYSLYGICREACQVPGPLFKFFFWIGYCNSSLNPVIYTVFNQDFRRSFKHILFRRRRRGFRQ
Put plainly: Adrenergic α2C radioligand binding assay ([3H]MK-912). As to conditions: compound at 0.1 μM; 1 nM [3H]MK-912; insect Sf9 cells; read-out: Percent Inhibition of ligand binding, Adrenergic (0.1 μM) a2C. Here is the method:
To evaluate in radioligand binding assays the activity of compounds of the invention, human recombinant adrenergic α2C receptor expressed in insect Sf9 cells (Uhlen S et al. J. Pharmacol. Exp. Ther. 271:1558, 1994) in a modified Tris-HCl buffer (50 mM Tris-HCl, pH 7.4, 12.5 mM MgCl2, 2 mM EDTA) is used. Compounds of the invention are incubated with 1 nM [^3H]MK-912 for 60 min at 25° C. Non-specific binding is estimated in the presence of 10 μM WB-4101. Receptor proteins are filtered and washed, the filters are then counted to determine [^3H]MK-912 specifically bound. Compounds are screened at 1 μM or lower, using 1% DMSO as vehicle. Compounds of the invention are tested in this biochemical assay and percent inhibition of specific binding is determined.

For assay [3], the target named is T3, human recombinant serotonin (5-Hydroxytryptamine) 5-HT5A receptor (Homo sapiens, UniProt P47898).
T3 construct: expressed in transfected cells; host or cells: Chinese hamster ovary (CHO-K1) cells
T3 sequence (P47898 whole entry): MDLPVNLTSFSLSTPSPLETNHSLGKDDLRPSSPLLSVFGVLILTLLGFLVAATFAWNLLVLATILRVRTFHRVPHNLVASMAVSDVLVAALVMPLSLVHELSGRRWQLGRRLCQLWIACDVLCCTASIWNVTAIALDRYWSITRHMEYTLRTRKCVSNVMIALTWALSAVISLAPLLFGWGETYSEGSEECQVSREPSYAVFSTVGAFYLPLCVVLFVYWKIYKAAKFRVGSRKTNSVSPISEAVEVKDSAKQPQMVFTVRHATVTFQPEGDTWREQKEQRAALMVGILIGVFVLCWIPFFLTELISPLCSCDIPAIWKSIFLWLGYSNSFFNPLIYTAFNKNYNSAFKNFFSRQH
The assay is described as follows: Serotonin 5-HT5A radioligand binding assay ([3H]LSD). As to conditions: compound at 0.1 μM; 1.7 nM [3H]LSD; CHO-K1 cells; read-out: Percent Inhibition of ligand binding, Serotonin (0.1 μM) 5-HT5A. The procedure:
Compounds of the invention were incubated with 1.7 nM [^3H]Lysergic acid diethylamide (LSD) for 60 min at 37° C. […] Receptor proteins were filtered and washed, the filters were then counted to determine [^3H]LSD specifically bound. Compounds were screened at 1 μM or lower, using 1% DMSO as vehicle. Compounds of the invention were tested in this biochemical assay and percent inhibition of specific binding was determined. Biochemical assay results are presented as the percent inhibition of specific binding in Table 4.

As usually defined, the inhibition is the relative decrease from the control value, in per cent. `Cc1ccc2c(c1)c1c(n2CCc2ccc(C)nc2)CCN(CC(F)(F)F)C1` [Compound 1-65, 8-methyl-5-(2-(6-methylpyridin-3-yl)ethyl)-2-(2,2,2-trifluoroethyl)-2,3,4,5-tetrahydro-1H-pyrido[4,3-b]indole]: the results for the inhibition at 0.1 µM in assay [1], in assay [2] and in assay [3] were -4%, -1% and -12%, respectively.
As to `CC[C@@](O)(Cn1c2c(c3cc(C)ccc31)CN(C)CC2)c1ccc(F)cc1` [Compound 1-66, (S)-1-(2,8-dimethyl-3,4-dihydro-1H-pyrido[4,3-b]indol-5(2H)-yl)-2-(4-fluorophenyl)butan-2-ol], the inhibition at 0.1 µM is 11% in assay [1], 18% in assay [2] and 31% in assay [3].
In the case of `CCCC[C@@](O)(Cn1c2c(c3cc(Cl)ccc31)CN(C)CC2)c1ccc(F)cc1` [Compound 1-67, (S)-1-(8-chloro-2-methyl-3,4-dihydro-1H-pyrido[4,3-b]indol-5(2H)-yl)-2-(4-fluorophenyl)hexan-2-ol], the results for the inhibition at 0.1 µM in assay [1], in assay [2] and in assay [3] were -2%, 13% and -11%, respectively.
